We go through two compounds from US12661355B2, “Compounds and methods for inducing UCP1 expression” (The Regents of the University of California, priority 2020, dated 2026).

One test has as its system Ucp1. Kind of test: Gene expression by qPCR in primary brown adipocytes. Type of test: cell-based, mouse. The conditions noted are these: for expression of markers of brown adipocyte identity, mitochondrial function and fatty acid oxidation genes / endogenous Ucp1 expression: 10 μM; for endogenous Ucp1 expression: primary mouse brown adipocytes. How it is done:
Primary brown adipocytes were isolated according to known methods. An established mouse brown adipocyte cell line was obtained from Dr. Bruce Spiegelman (Dana-Farber Cancer Institute, Boston, USA). To differentiate primary and immortalized brown adipocytes, cells were grown until confluency in DMEM containing 10% FBS, 25 mM glucose 1 mM pyruvate, 2 mM glutamine, 20 nM insulin, 1 nM T3, and antibiotics. Once confluent (day 0), differentiation was induced by supplementing the medium with 0.5 mM IBMX, 0.5 μM dexamethasone, and 0.125 mM indomethacin, for 2 days. Differentiation was continued in the original medium (without IBMX, dexamethasone and indomethacin) for 7-10 days.
RNA levels were measured by qPCR according to known methods. Briefly, RNA was extracted with TRIzol (Invitrogen) and reverse transcribed with iScript (Bio-Rad). Real-time PCR analysis was performed with a CFX Connect (Bio-Rad).
Mouse RNA levels were measured by qPCR according to known methods. Data were normalized to B2m and Tbp reference genes. Human RNA was extracted using an RNA Mini Plus kit (Zymo) and gene expression determined by Taqman assay. The 1-step qPCR was run on a QuantStudio 12K Flex Real Time PCR System (ThermoFisher) using the following protocol: 50° C. for 5 minutes, 95° C. for 20 seconds, 40 cycles of 95° C. for 15 seconds and 60° C. for 60 seconds. Data were normalized to PPIA and PSMB2 reference genes. For global gene expression analysis, RNA isolated from brown adipocytes treated with compounds as indicated (four biological replicates) was hybridized to Illumina mouse Ref 8 V2.0 bead chips at the University of California, Los Angeles Neuroscience Genomics Core as previously described. Data were processed with GenomeStudio V2011.1 using the quantile normalization, background subtraction, and a present call of P<0.05.
On the technique in general: In qPCR the cycle at which signal appears reflects the starting amount.

The target in test [1] is T1, AKAP1 and the PKA subunits (Mus musculus, UniProt O08715).
T1 construct: Immortalized brown adipocyte cells were differentiated for 10 days and treated with 10 μM AST070 or Z160 for 7 h; endogenous in cells; host or cells: immortalized mouse brown adipocytes
The test can be described thus: Co-immunoprecipitation of PKA C-α and PKA RII-β with AKAP1. Format: cell-based. The conditions noted are these: brown adipocytes, 10 μM for 7 h. The protocol: Immortalized brown adipocyte cells were differentiated for 10 days and treated with 10 μM AST070 or Z160 for 7 h. Cells were lysed in 150 mM NaCl, 50 mM Tris pH 7.5, 1% Nonidet P40, 0.5% Na-deoxycholate containing protease and phosphatase inhibitors. Cell lysates were incubated overnight at 4° C. with 2 μl of anti-AKAP1 antibody. Twenty microliter of Protein A/G PLUS agarose beads (Santa Cruz Biotechnologies) were added for 2 h at 4° C. After a initial wash (500 mM NaCl, 50 mM Tris pH 7.5, 0.1% Nonidet P40, 0.05% Na-deoxycholate) and a final wash (10 mM Tris pH 7.5, 0.1% Nonidet P40, 0.05% Na-deoxycholate), proteins were eluted from the beads with 1× loading buffer and 2% β-mercaptoethanol, boiled for 10 min and analyzed by Western blot. To avoid detecting the IgG heavy chain, TidyBlot Western Blot reagent:HRP (Bio-Rad) at 1:100 was used as secondary antibody to reveal the PKA subunits from the co-immunoprecipitation blot.
AKAP1 is known to localize PKA to the surface of mitochondria and to relay cAMP signaling for mitochondrial functions. Inspired by this information, an inquiry as to whether treatment with the reported compounds could alter the binding of AKAP1 to mitochondria was undertaken. Analysis began by treating brown adipocytes with Z160 and isolated mitochondria at different times. […]

Test [2] relates to phospho-(Ser/Thr) PKA substrate. The test can be described thus: Phosphorylation of PKA substrates by Western blot in brown adipocytes. Type of test: cell-based, mouse. The conditions noted are these: overnight, 10 μM. The protocol:
Cells and tissues were lysed in 10 mM Tris pH 7.5, 10 mM NaCl, 1 mM EDTA and 0.5% Triton X-100, supplemented with complete mini EDTA-free protease (Roche Diagnostics) and phosphatase (Cocktail 2 and 3, Sigma) inhibitors, followed by 10 second sonication. For analysis of mitochondrial proteins, mitochondria were isolated from cells by dual centrifugation, as described. Protein lysates were separated by SDS-PAGE and transferred to a nitrocellulose membrane. Transfer was confirmed by Ponceau staining (P7170, Sigma). After blocking in 5% milk, 0.1% Tween-20 in Tris-buffered saline (TBS), primary antibody was incubated overnight at 4° C. in 5% bovine serum albumin and 0.1% Tween-20 in TBS. Primary antibodies against ACTB (GTX109639, GeneTex), AKAP1 (5203, Cell Signaling), AKAP6 (07-087, Millipore), Cytochrome c (136F3, Cell Signaling), electron transport chain protein complexes (Total OXPHOS rodent WB antibody cocktail ab110413, Abcam), GAPDH (GTX100118, Genetex), active p38 MAPK (V1211, Promega), total p38 MAPK (8690, Cell Signaling), PGC1α (AB3242, Millipore), phospho-(Ser/Thr) PKA substrate (9621, Cell Signaling), PKA C-α (4782, Cell Signaling), PKA RII-β (ab75993, Abcam), and UCP1 (662045, Calbiochem) were used at 1:2000. […] Quantification using representative bands from the Ponceau staining was performed with ImageJ.

The subject of a further test is PKA. The test can be described thus: PKA activity ELISA, brown adipocytes treated overnight. To be noted: immortalized brown adipocytes, 10 μM. Format: cell-based, mouse. The protocol:
PKA kinase activity was measured with an ELISA that utilized a synthetic peptide as substrate for PKA and a polyclonal antibody that recognizes the phosphorylated form of the substrate (ab139435, Abcam). PKA activity was measured in lysates from cultured brown adipocytes, mouse BAT, or liver. Cells and tissues were lysed in 20 mM MOPS, 5 mM EGTA, 2 mM EDTA, and 0.1% Triton X-100 supplemented with protease and phosphatase inhibitor as described above. Protein concentration was determined by Bradford assay and 10 μg of cells, 0.25 μg of BAT extract, or 0.5 μg of liver extract were assessed for PKA activation according to the manufacturer's instruction, with minor changes. Briefly, vehicle or Z160 was incubated with brown adipocyte cells overnight or with protein lysates for 30 min, followed by one wash before the primary antibody, 60 min incubation with the primary antibody, 30 min incubation with the secondary antibody, and by 10 min washing. Absorbance was measured after the substrate was added for 20-60 min, depending the intensity of the signal.
(ELISA stands for enzyme-linked immunosorbent assay.)

As for `O=C(CSc1nc2ccccc2c(=O)[nH]1)Nc1ccc2c(c1)OCCO2` [AST070, N-(2,3-dihydro-1,4-benzodioxin-6-yl)-2-[(4-oxo-3,4-dihydroquinazolin-2-yl)sulfanyl]acetamide], in the test on Ucp1 (primary brown adipocytes), the “expression of markers of brown adipocyte identity, mitochondrial function and fatty acid oxidation genes” value is on record as “promoted expression”. The “endogenous Ucp1 expression” value in the test on Ucp1 is 29 fold. Further, the “signal for PKA subunit precipitation by AKAP1” value in test [1] is on record as “slightly enhanced”. The “phosphorylation of PKA substrates” value in test [2] is given as “increased the levels of phosphorylation”. Moreover, in the test on PKA, the PKA activity result was “significantly increased”.
For the compound `COc1ccc(NC(=O)CSc2nc3ccccc3c(=O)[nH]2)c(OC)c1` [Z160], the “expression of markers of brown adipocyte identity, mitochondrial function and fatty acid oxidation genes” value with Ucp1 (primary brown adipocytes) was “promoted expression”. For the same compound, the “expression of lipolytic enzymes (Atgl, Hsl) and FGF21 at the mRNA level” value with Ucp1 (primary brown adipocytes, 10 μM overnight) was “increased expression”. Moreover, in the test with Ucp1, the “endogenous Ucp1 expression” value worked out at 62 fold. The “signal for PKA subunit precipitation by AKAP1” value in test [1] was “slightly enhanced”. For the same compound, in test [2], the “phosphorylation of PKA substrates” value is listed as “increased the levels of phosphorylation”. Besides, the PKA activity entry in the test on PKA is “significantly increased”.
